Measurements from US11198713B2, “Agents modulating beta-catenin functions and methods thereof” (FOG PHARMACEUTICALS, INC., priority 2017, dated 2021).
Numbered stars: 1 amine (or outer) side, 2 acyl side, 3 side chain; on linkers, the order of the positions; unused ones are H or OH. Bridge positions count the residues as written; N and C are the ends. Square brackets hold non-standard residues; d marks the D form. Peptide text beside a SMILES is read from it. X12 = CN(CC=[*:3])CCC[C@@](C)(N[*:1])C(=O)[*:2]; S5 = C=CCCC[C@](C)(N)C(=O)O

Target: T1, full-length beta-catenin (Axin site) (Homo sapiens, UniProt P35222)
T1 construct: 15 nM full-length beta-catenin, 20 nM FITC labeled peptide in buffer
T1 sequence (P35222 1-781): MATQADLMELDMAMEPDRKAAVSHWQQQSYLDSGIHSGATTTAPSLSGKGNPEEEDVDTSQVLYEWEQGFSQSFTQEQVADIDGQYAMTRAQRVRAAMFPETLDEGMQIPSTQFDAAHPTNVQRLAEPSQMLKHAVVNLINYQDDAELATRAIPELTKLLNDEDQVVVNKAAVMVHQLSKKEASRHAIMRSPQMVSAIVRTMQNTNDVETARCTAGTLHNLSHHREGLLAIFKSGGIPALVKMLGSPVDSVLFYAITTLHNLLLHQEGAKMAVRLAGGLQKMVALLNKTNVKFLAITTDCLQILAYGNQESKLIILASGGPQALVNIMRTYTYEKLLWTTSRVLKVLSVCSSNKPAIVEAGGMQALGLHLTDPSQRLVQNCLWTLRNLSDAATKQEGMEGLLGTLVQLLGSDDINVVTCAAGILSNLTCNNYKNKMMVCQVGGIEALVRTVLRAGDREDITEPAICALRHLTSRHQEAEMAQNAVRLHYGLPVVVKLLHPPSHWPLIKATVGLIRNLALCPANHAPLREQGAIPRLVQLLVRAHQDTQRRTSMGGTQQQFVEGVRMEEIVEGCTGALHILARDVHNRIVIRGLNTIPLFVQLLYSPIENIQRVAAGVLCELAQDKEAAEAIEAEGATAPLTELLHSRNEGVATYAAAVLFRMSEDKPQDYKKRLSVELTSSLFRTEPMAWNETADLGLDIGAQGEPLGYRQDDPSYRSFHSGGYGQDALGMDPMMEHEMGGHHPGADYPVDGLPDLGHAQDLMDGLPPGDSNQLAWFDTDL
Test: Competition fluorescence polarization assay (Axin site probe)
Type: binding
Conditions: competition fluorescence polarization, Table 2; read-out: in vitro FP EC50
Description: FIG. 1. […] Peptide solutions were prepared in buffer (50 mM Tris pH 8.0, 250 mM NaCl, 2% glycerol, 0.5 mM EDTA, 0.02% w/v sodium azide) using a 3-fold serial dilution from 5 μM. Probe solution (15 nM full-length 13-Catenin, 20 nM FITC labeled peptide (FITC-PEG1-PQ-S5-ILD-S5-HVRRVWR (SEQ ID NO: 1) (hydrocarbon staple formed by two S5 via olefin metathesis)) in buffer) was prepared and incubated for 5 minutes, then 40 μL per well plated in a black polystyrene 384-well plate (Corning). Equal volume of the titrated peptide was added to the plate and incubated protected from light for 15 minutes prior to read. Reads were performed on a Spectramax M5 (Molecular Devices) in duplicate.
FIG. 7. […] BCL9 Competition FP assay: Peptide solutions were prepared in buffer (50 mM Tris pH 8.0, 250 mM NaCl, 2% glycerol, 0.5 mM EDTA, 0.02% w/v sodium azide) using a 3-fold serial dilution from 10 μM. Probe solution (250 nM full-length beta-catenin, 20 nM 5FAM labeled peptide in buffer) was prepared and 40 μL per well plated in a black polystyrene 384-well plate (Corning). Equal volume of the titrated peptide was added to the plate and incubated protected from light for 15 minutes prior to read. Reads were performed on a Spectramax M5 (Molecular Devices) in duplicate. Probe: Ac-[…]nLeu-Leu-2NapA-bala-bala-Lys5FAM-NH2 (SEQ ID NO: 2) (from Biochemistry, 2009, 48 (40), pp 9534-9541). Axin Competition FP assay: Peptide solutions were prepared in buffer (50 mM Tris pH 8.0, 250 mM NaCl, 2% glycerol, 0.5 mM EDTA, 0.02% w/v sodium azide) using a 3-fold serial dilution from 5 μM. Probe solution (15 nM full-length beta-catenin, 20 nM FITC labeled peptide in buffer) was prepared and incubated for 5 minutes, then 40 μL per well plated in a black polystyrene 384-well plate (Corning). Equal volume of the titrated peptide was added to the plate and incubated protected from light for 15 minutes prior to read. Reads were performed on a Spectramax M5 (Molecular Devices) in duplicate. Probe: FITC-StAx-33 from Grossmann et al. PNAS 109 17942-17947.

Compared with `CC[C@H](C)[C@@H]1NC(=O)[C@@]2(NC(=O)[C@H](CCC(N)=O)NC(=O)[C@@H]3CCCN3C(C)=O)CCN(CC=CCCC[C@](C)(C(=O)N[C@@H](Cc3c[nH]cn3)C(=O)N[C@H](C(=O)N[C@@H](CCCNC(=N)N)C(=O)N[C@@H](CCCNC(=N)N)C(=O)N[C@H](C(=O)N[C@@H](Cc3c[nH]c4ccccc34)C(=O)N[C@@H](CCCNC(=N)N)C(N)=O)C(C)C)C(C)C)NC(=O)[C@H](CC(=O)O)NC(=O)[C@H](CC(C)C)NC1=O)C2` (single isomer, unassigned) [FP0743a, Ac-P-Q-MC-I-L-D-R5-H-V-R-R-V-W-R-NH2], `CC[C@H](C)[C@@H]1NC(=O)[C@]2(NC(=O)[C@H](CCC(N)=O)NC(=O)[C@@H]3CCCN3C(C)=O)CCN(C2)C(=O)OCC=CCCC[C@@](C)(C(=O)N[C@@H](Cc2c[nH]cn2)C(=O)N[C@H](C(=O)N[C@@H](CCCNC(=N)N)C(=O)N[C@@H](CCCNC(=N)N)C(=O)N[C@H](C(=O)N[C@@H](Cc2c[nH]c3ccccc23)C(=O)N[C@@H](CCCNC(=N)N)C(N)=O)C(C)C)C(C)C)NC(=O)[C@H](CC(=O)O)NC(=O)[C@H](CC(C)C)NC1=O` (single isomer, unassigned) [FP0751c, Ac-P-Q-MB-I-L-D-S5-H-V-R-R-V-W-R-NH2] is lower in EC50: over 5000 nM for the first, 500 to 5000 nM for the second. The second is the more potent here.

Compared with `CC[C@H](C)[C@@H]1NC(=O)[C@@](C)(NC(=O)[C@H](CCC(N)=O)NC(=O)[C@@H]2CCCN2C(C)=O)CCCCC=CCN2CC(C(=O)N[C@@H](Cc3c[nH]cn3)C(=O)N[C@H](C(=O)N[C@@H](CCCNC(=N)N)C(=O)N[C@@H](CCCNC(=N)N)C(=O)N[C@H](C(=O)N[C@@H](Cc3c[nH]c4ccccc34)C(=O)N[C@@H](CCCNC(=N)N)C(N)=O)C(C)C)C(C)C)(C2)NC(=O)[C@H](CC(=O)O)NC(=O)[C@H](CC(C)C)NC1=O` (single isomer, unassigned) [FP0736a, Ac-P-Q-S6-I-L-D-MA-H-V-R-R-V-W-R-NH2], `CC[C@H](C)[C@@H]1NC(=O)[C@](C)(NC(=O)[C@H](CCC(N)=O)NC(=O)[C@@H]2CCCN2C(C)=O)CCCCC=CCN2CC[C@](C(=O)N[C@@H](Cc3c[nH]cn3)C(=O)N[C@H](C(=O)N[C@@H](CCCNC(=N)N)C(=O)N[C@@H](CCCNC(=N)N)C(=O)N[C@H](C(=O)N[C@@H](Cc3c[nH]c4ccccc34)C(=O)N[C@@H](CCCNC(=N)N)C(N)=O)C(C)C)C(C)C)(C2)NC(=O)[C@H](CC(=O)O)NC(=O)[C@H](CC(C)C)NC1=O` (single isomer, unassigned) [FP0767a, Ac-P-Q-R6-I-L-D-MC-H-V-R-R-V-W-R-NH2] is higher in EC50: 100 to 500 nM for the first, 500 to 5000 nM for the second.

`CC[C@H](C)[C@@H]1NC(=O)[C@H](Cc2ccccn2)NC(=O)[C@H](C)NC(=O)[C@H](CC(=O)O)NC(=O)[C@H](CC(C)C)NC(=O)[C@H]([C@@H](C)CC)NC(=O)[C@](C)(NC(=O)[C@H](C)NC(C)=O)CCCCCCC=CCOC(=O)N2CC[C@@](C(=O)N[C@@H](CC3CC3)C(=O)N[C@H](C(=O)N[C@@H](Cc3c[nH]c4ccccc34)C(N)=O)C(C)C)(C2)NC1=O` (single isomer, unassigned) [FP0574c Isomer 1, Ac-A-R8-I-L-D-A-2pyr-I-MB-cpa-V-W-NH2] and `CC[C@H](C)[C@@H]1NC(=O)[C@H](Cc2ccccn2)NC(=O)[C@H](C)NC(=O)[C@H](CC(=O)O)NC(=O)[C@H](CC(C)C)NC(=O)[C@H]([C@@H](C)CC)NC(=O)[C@](C)(NC(=O)[C@H](C)NC(C)=O)CCCCCCC=CCOC(=O)N2CC[C@@](C(=O)N[C@H](C(=O)N[C@H](C(=O)N[C@@H](Cc3c[nH]c4ccccc34)C(N)=O)C(C)C)C(C)C)(C2)NC1=O` (single isomer, unassigned) [FP0562c Isomer 1, Ac-A-R8-I-L-D-A-2pyr-I-MB-V-V-W-NH2] cannot be ordered by EC50: over 5000 nM for the first, over 5000 nM for the second.

First: CC[C@H](C)[C@@H]1NC(=O)[C@@](C)(NC(=O)[C@H](CCC(N)=O)NC(=O)[C@@H]2CCCN2C(C)=O)CCCCC=CCOC(=O)N2CC[C@@](C(=O)N[C@@H](Cc3c[nH]cn3)C(=O)N[C@H](C(=O)N[C@@H](CCCNC(=N)N)C(=O)N[C@@H](CCCNC(=N)N)C(=O)N[C@H](C(=O)N[C@@H](Cc3c[nH]c4ccccc34)C(=O)N[C@@H](CCCNC(=N)N)C(N)=O)C(C)C)C(C)C)(C2)NC(=O)[C@H](CC(=O)O)NC(=O)[C@H](CC(C)C)NC1=O (single isomer, unassigned) [FP0761c, Ac-P-Q-S6-I-L-D-MB-H-V-R-R-V-W-R-NH2]
Second: CC[C@H](C)[C@@H]1NC(=O)[C@H](Cc2c[nH]cn2)NC(=O)[C@H](C)NC(=O)[C@H](CC(=O)O)NC(=O)[C@H](CC(C)C)NC(=O)[C@H]([C@@H](C)CC)NC(=O)[C@](C)(NC(=O)[C@H](C)NC(C)=O)CCCCCCC=CCOC(=O)N2CC[C@@](C(=O)N[C@@H](CCCCNC(=N)N)C(=O)N[C@H](C(=O)N[C@@H](Cc3c[nH]c4ccccc34)C(N)=O)C(C)C)(C2)NC1=O [FP0634c, Ac-A-R8-I-L-D-A-H-I-MB-hArg-V-W-NH2]
The EC50 of the first is higher: 100 to 500 nM for the first, under 100 nM for the second. The second is the more potent here.

First: CC[C@H](C)[C@@H]1NC(=O)[C@H](Cc2c[nH]cn2)NC(=O)[C@H](C)NC(=O)[C@H](CC(=O)O)NC(=O)[C@H](CC(C)C)NC(=O)[C@H]([C@@H](C)CC)NC(=O)[C@](C)(NC(=O)[C@H](C)NC(C)=O)CCCN(C)CC=CCCC[C@@](C)(C(=O)N[C@@H](CCCNC(=N)N)C(=O)N[C@H](C(=O)N[C@@H](Cc2c[nH]c3ccccc23)C(N)=O)C(C)C)NC1=O [FP0506a, Ac-A-MI-I-L-D-A-H-I-S5-R-V-W-NH2] (Ac-A[X12]ILDAHI[S5]RVW-NH2; staple 2-9)
Second: CC[C@H](C)[C@@H]1NC(=O)[C@](C)(NC(=O)[C@H](C)NC(C)=O)CCCCCCC=CCOC(=O)N2CC[C@@](C(=O)N[C@@H](CCCNC(=N)N)C(=O)N[C@H](C(=O)N[C@@H](Cc3c[nH]c4ccccc34)C(N)=O)C(C)C)(C2)NC(=O)[C@H](C)NC(=O)[C@H](Cc2c[nH]cn2)NC(=O)[C@H](C)NC(=O)[C@H](CC(=O)O)NC(=O)[C@H](CC(C)C)NC1=O [FP0409c, Ac-A-R8-I-L-D-A-H-A-MB-R-V-W-NH2]
The EC50 of the first is lower: 500 to 5000 nM for the first, over 5000 nM for the second. The first is the more potent here.

Same assay, conditions: competition with FITC labeled Axin-site probe, 15 nM full-length beta-catenin; read-out: FP EC50

Compared with `CC[C@H](C)[C@@H]1NC(=O)[C@](C)(NC(=O)[C@H](CCC(N)=O)NC(=O)[C@@H]2CCCN2C(C)=O)CCCCC=CCOC(=O)N2CC[C@](C(=O)N[C@@H](Cc3c[nH]cn3)C(=O)N[C@H](C(=O)N[C@@H](CCCNC(=N)N)C(=O)N[C@@H](CCCNC(=N)N)C(=O)N[C@H](C(=O)N[C@@H](Cc3c[nH]c4ccccc34)C(=O)N[C@@H](CCCNC(=N)N)C(N)=O)C(C)C)C(C)C)(C2)NC(=O)[C@H](CC(=O)O)NC(=O)[C@H](CC(C)C)NC1=O` (single isomer, unassigned) [FP-0767c, Ac-P-Q-R6-I-L-D-PR-H-V-R-R-V-W-R-NH2], `CC[C@H](C)[C@@H]1NC(=O)C2(NC(=O)[C@H](CCC(N)=O)NC(=O)[C@@H]3CCCN3C(C)=O)CN(C2)C(=O)OCC=CCCC[C@](C)(C(=O)N[C@@H](Cc2c[nH]cn2)C(=O)N[C@H](C(=O)N[C@@H](CCCNC(=N)N)C(=O)N[C@@H](CCCNC(=N)N)C(=O)N[C@H](C(=O)N[C@@H](Cc2c[nH]c3ccccc23)C(=O)N[C@@H](CCCNC(=N)N)C(N)=O)C(C)C)C(C)C)NC(=O)[C@H](CC(=O)O)NC(=O)[C@H](CC(C)C)NC1=O` (single isomer, unassigned) [FP-0723c, Ac-P-Q-Az-I-L-D-R5-H-V-R-R-V-W-R-NH2] is 13-fold higher in EC50: 110 nM for the first, 1400 nM for the second. The first is the more potent here.
